Experimental data: ChEMBL document CHEMBL1201862, “PubChem BioAssay data set” (2004)
Calls of active or inactive are those of the source.

Legend:
[1] = inhibitors of intracellular T. cruzi replication, confirmation, NIH3T3 host cells, beta-gal luminescence (AID 2044); type: functional, cell-based;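 note: intracellular parasites grown in NIH/3T3 mouse fibroblasts as host cells; luminescent beta-galactosidase reporter signal from transgenic T. cruzi replicating inside host cells; inhibitors lower the luminescence signal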
[2] = CEM21 lymphoblast cell cytotoxicity, dose response, cytotoxicity control for viral fusion inhibitor project, CellTiter-Glo luminescence, cherry-picked (AID 652042); type: functional, cell-based;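 note: potency for signal decrease meaning cytotoxicity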
[3] = inhibitors of HIV Env-driven cell fusion, dose response, cherry-pick (AID 652057); type: functional, cell-based
cells = type: functional, cell-based
[4] = biological target: Proto-oncogene tyrosine-protein kinase receptor Ret (Homo sapiens, UniProt P07949); type: functional;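 note: measured within a kinome-wide profiling panel, RET as the panel member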
Proto-oncogene tyrosine-protein kinase receptor Ret, sequence (P07949 whole entry): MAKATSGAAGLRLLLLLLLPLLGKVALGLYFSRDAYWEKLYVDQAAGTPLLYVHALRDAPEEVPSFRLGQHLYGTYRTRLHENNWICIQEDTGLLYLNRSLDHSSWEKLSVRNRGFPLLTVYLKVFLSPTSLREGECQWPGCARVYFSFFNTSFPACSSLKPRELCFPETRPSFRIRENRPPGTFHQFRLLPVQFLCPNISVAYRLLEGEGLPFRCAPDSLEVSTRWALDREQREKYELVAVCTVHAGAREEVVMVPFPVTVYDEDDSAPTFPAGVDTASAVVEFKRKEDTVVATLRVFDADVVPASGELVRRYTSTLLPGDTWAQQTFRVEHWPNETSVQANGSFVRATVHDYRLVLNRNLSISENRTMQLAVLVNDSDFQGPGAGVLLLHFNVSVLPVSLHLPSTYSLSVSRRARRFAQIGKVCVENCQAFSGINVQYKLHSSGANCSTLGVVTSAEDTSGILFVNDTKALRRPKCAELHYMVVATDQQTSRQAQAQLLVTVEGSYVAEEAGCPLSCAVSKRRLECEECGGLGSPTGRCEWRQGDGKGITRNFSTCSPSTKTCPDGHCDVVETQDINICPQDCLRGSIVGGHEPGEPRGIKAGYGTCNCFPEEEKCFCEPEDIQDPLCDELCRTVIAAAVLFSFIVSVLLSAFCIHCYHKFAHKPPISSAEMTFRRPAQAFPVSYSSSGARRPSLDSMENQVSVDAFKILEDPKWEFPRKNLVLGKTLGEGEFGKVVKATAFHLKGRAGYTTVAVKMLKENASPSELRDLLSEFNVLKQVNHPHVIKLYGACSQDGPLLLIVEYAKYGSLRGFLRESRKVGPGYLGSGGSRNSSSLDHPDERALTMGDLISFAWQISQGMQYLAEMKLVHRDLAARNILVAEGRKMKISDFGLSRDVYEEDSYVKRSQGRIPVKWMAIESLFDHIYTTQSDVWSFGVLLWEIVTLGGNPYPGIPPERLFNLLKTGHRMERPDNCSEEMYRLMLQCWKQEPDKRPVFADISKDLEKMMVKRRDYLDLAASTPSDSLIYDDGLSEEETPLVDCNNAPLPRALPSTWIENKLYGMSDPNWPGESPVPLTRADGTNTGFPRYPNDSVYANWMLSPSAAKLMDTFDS

[5] = biological target: Platelet-derived growth factor receptor beta (Homo sapiens, UniProt P09619); type: functional;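 note: value comes from a kinome panel, with PDGFRB tested as one panel member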
Platelet-derived growth factor receptor beta, sequence (P09619 whole entry): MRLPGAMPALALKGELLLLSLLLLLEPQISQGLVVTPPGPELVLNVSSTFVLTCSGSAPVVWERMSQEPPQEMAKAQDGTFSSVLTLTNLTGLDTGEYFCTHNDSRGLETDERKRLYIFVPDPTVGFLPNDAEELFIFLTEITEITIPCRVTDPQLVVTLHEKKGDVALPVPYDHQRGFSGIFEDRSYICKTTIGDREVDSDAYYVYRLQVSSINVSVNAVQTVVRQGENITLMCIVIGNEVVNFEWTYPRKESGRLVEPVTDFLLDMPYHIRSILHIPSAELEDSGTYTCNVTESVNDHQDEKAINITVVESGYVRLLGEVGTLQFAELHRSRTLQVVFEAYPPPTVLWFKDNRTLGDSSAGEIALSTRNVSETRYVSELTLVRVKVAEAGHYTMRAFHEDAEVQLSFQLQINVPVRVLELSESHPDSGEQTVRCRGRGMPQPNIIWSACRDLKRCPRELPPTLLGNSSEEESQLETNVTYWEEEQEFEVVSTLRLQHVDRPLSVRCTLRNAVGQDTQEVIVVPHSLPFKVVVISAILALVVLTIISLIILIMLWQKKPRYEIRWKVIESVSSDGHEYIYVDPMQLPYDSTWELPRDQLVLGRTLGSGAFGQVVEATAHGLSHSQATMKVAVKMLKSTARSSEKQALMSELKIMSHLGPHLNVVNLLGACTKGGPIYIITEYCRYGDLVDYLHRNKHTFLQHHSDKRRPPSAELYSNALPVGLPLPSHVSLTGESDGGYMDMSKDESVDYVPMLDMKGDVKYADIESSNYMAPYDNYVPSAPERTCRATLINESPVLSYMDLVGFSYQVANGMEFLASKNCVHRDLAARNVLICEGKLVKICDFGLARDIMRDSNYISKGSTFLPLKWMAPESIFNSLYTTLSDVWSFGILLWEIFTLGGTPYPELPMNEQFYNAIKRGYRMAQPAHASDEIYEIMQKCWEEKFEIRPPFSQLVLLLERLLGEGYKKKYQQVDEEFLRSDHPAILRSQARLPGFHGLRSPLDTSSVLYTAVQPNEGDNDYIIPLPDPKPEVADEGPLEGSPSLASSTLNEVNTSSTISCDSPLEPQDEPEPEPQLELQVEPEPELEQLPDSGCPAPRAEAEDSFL

[6] = biological target: T1, Histone-lysine N-methyltransferase NSD2 (Homo sapiens, UniProt O96028); type: biochemical
T1 sequence (O96028 whole entry): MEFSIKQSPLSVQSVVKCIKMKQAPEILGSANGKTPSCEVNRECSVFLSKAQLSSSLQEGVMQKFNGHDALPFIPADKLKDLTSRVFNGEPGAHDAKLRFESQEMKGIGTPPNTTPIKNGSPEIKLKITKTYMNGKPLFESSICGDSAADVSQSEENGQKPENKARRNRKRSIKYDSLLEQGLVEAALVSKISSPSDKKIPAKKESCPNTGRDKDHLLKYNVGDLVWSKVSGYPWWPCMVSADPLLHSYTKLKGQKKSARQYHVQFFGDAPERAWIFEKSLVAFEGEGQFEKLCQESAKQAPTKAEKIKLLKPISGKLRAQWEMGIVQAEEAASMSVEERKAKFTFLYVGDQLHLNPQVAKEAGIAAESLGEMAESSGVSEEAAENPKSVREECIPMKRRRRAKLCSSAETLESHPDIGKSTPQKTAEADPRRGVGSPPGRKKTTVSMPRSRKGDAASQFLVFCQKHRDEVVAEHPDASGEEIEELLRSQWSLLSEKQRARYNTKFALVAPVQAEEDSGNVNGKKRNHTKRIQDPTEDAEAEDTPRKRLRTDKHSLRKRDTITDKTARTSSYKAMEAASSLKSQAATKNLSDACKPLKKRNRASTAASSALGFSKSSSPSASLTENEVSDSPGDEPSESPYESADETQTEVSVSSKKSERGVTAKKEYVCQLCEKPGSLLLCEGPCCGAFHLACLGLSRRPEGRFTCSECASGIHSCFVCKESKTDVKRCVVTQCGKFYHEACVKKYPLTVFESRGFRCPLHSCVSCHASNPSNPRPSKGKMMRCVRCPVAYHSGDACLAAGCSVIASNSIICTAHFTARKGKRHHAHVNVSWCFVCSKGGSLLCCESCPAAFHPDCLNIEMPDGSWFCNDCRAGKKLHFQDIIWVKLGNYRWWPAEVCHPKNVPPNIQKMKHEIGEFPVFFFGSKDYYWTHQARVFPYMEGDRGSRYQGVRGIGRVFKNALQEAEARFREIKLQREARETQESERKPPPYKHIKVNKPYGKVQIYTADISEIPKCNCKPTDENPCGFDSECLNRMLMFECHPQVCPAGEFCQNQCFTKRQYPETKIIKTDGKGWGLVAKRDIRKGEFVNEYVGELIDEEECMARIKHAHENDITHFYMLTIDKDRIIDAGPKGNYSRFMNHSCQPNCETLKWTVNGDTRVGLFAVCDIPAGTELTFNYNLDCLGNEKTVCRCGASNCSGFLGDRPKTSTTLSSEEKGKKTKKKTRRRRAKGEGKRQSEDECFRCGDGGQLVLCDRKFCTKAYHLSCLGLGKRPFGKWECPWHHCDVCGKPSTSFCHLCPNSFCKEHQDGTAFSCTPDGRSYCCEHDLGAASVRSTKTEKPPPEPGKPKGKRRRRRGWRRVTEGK

Orexin receptor type 2 = Orexin receptor type 2 (Homo sapiens, UniProt O43614); assay: Counterscreen assay for antagonists of the orexin 1 receptor (OX1R; HCRTR1): Fluorescence-based cell-based dose response assay for antagonists of the orexin 2 receptor (OX2R; HCRTR2), run by assay provider.; type: functional
Orexin receptor type 2, sequence (O43614 whole entry): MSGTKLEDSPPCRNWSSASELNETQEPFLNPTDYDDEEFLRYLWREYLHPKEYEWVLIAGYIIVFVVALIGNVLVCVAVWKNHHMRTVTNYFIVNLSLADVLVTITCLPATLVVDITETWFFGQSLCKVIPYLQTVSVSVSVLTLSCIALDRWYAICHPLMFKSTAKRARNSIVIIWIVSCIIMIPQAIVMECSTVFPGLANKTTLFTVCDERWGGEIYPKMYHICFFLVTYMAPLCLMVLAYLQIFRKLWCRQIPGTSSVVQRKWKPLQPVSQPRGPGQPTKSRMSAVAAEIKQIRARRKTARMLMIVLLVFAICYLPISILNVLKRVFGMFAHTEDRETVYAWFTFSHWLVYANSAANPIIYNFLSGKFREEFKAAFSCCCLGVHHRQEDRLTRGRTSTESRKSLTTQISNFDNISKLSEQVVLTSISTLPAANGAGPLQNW

[7] = biological target: T2, Replicative DNA helicase DnaB (Mycobacterium tuberculosis, UniProt P9WMR3); assay: DnaB intein splicing inhibitors, dose response, biochemical, cell-free fluorescence (AID 449749); type: functional
T2 sequence (P9WMR3 whole entry): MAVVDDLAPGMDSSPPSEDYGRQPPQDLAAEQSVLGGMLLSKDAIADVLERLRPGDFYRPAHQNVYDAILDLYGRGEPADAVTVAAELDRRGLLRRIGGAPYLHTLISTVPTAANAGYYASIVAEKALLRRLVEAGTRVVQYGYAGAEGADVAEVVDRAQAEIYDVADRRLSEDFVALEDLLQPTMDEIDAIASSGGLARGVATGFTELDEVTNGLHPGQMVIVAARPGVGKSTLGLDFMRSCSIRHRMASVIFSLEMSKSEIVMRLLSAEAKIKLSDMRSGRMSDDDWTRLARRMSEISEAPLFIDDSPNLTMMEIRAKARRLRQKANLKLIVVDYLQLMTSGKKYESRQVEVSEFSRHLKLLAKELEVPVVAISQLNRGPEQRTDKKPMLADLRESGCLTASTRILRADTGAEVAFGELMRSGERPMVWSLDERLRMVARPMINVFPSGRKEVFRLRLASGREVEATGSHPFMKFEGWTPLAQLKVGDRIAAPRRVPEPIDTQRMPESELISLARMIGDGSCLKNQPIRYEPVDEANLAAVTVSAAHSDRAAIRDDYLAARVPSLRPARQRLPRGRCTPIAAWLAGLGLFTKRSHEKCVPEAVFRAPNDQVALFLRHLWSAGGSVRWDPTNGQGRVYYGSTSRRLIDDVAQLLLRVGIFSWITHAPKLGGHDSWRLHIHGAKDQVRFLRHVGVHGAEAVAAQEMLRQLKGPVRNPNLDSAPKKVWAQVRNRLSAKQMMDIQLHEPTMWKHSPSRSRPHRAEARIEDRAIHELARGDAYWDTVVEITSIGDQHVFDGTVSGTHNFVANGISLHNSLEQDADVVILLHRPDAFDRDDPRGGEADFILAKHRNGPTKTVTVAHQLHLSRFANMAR

Activin receptor type-1 = Activin receptor type-1 (Homo sapiens, UniProt Q04771); assay: Navigating the Kinome. Panel member name: ACVR1; type: functional
Activin receptor type-1, sequence (Q04771 whole entry): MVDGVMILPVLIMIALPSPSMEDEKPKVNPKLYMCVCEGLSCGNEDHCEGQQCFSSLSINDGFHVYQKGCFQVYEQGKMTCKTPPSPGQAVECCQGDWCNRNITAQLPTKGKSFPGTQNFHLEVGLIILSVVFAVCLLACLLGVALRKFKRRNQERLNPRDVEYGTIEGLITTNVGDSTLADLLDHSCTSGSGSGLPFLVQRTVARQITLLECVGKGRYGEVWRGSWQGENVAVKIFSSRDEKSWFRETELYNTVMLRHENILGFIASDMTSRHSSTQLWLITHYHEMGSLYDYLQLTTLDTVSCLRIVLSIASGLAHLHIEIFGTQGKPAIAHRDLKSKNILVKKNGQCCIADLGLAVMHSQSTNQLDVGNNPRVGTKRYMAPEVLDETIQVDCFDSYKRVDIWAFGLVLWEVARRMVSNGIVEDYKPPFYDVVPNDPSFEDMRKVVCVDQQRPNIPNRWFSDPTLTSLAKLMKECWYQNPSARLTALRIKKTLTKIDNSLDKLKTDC

With `CCCC(=O)NC(c1cccs1)c1cc(Cl)c2cccnc2c1O` (stereo not given) the EC50 [1] was 1.06 µM (active), the AC50 [2] was 25.1 µM (active) and the AC50 [3] was 4.9 µM (active). The EC50 (cells) was > 350 µM (not active).

In the case of `O=C(Nc1cccc(C2Nc3ccc4ccccc4c3C3C=CCC32)c1)c1ccc(F)cc1` (stereo not given), the Ki [4] is reported as > 3.16 µM (inactive) and the Ki [5] is reported as 1.58 µM (active).

With `O=C(O)CC(C(=O)O)N1C(=O)/C(=C/C=C/c2ccco2)SC1=S` (stereo not given) the AC50 [6] was 4.16 µM (active).

In the case of `Cc1ccc(C(=O)OCn2ncc(Cl)c(Cl)c2=O)cc1`, the IC50 (Orexin receptor type 2) is reported as > 88.8 µM (inactive) and the AC50 [7] is reported as 3.66 µM (active).

For `Cc1ccc(-c2cc(-c3cc(Br)ccc3O)[nH]c(=O)c2C#N)s1`, the Ki (Activin receptor type-1) was > 3.98 µM (inactive).
